This note sets out measurements from patent publication US20050137221A1, “Novel azasugar derivative and drug containing the same as the active ingredient” (priority 2002, published 2005).

In the first test the test system is epidermal hyperplasia in male BALB/c mice. As to the kind of experiment: TPA-induced epidermal hyperplasia on mouse dorsal skin (epidermal thickness). As to conditions: topical application in acetone 5 minutes, 24 hours and 48 hours after TPA; skin excised at 72 hours; FIG. 1. In kind it is in vivo. On the procedure:
After backs of male BALB/c mice were shaved, 10 μL of a TPA-acetone solution (0.1 mM) was applied to the dorsal skin surface in an area of about 1 cm^2. In the medicine-treated group, a volume of 20 μL of a solution prepared by dissolving the test compound in acetone was applied to the same area 5 minutes, 24 hours and 48 hours after TPA application. In the non-treated group, only TPA was applied. In the control group, acetone was applied instead of the TPA-acetone solution.
The mice were sacrificed and the skin tissues were excised 72 hours after TPA application. Then the tissues were fixed with formalin, the vertical sections including the center of the TPA- or acetone-treated area were prepared and embedded in paraffin according to the conventional method. And they were stained by hematoxylin-eosin after removing paraffin. The epidermal thickness was measured using a microscope.
In FIG. 1, the numeral in the ordinate represents the epidermal thickness (μm). A bar graph of TPA (-) represents the epidermal thickness of the control group and a bar graph of TPA represents the epidermal thickness of the non-treated group. The respective bar graphs of 1, 10 and 100 denote the epidermal thickness of the group wherein the test compound is administered at a dose of 1, 10 and 100 (μg/wound) of each test compound. […]
For `O=C(NO)[C@H]1[C@@H](O)[C@H](O)[C@@H](O)CN1S(=O)(=O)c1ccc(Oc2ccccc2)cc1` [Compound c, (2R,3R,4R,5S)-3,4,5-trihydroxy-1-(4′-phenoxybenzenesulfonyl)-piperidine-2-carboxylic acid hydroxamide], the “hyperplasia inhibitory activity (epidermal thickness)” value is “hyperplasia inhibitory activity”.

Tested on in another test: not listed separately
As to the kind of experiment: Inhibition of TPA-stimulated release of HB-EGF-AP fusion protein from HT-1080 transfectant. In kind it is cell-based. The settings on record: Homo sapiens, 1 h, 60 nM TPA for 60 min, AP activity of culture supernatant at 405 nm. The method, then: Human fibrosarcoma HT-1080 transfectant expressing fusion protein of HB-EGF and human placental alkaline phosphatase (AP) were used for following tests.
The cultured transfectant was treated with Trypsin-EDTA solution, and suspended in Minimum Essential Medium without phenol red; supplemented with 10% FCS(hereinafter referred to as MEM) at the concentration of 1.0×10^5 cells/ml. Each 0.2 ml of the cell suspension was dispensed into individual wells of 96 well microplate, and incubated overnight in a CO2 incubator at 37° C. After the incubation, the culture supernatant was removed by suction and the wells were washed with 0.2 ml/well of phosphate buffered saline. The cells were pretreated with 0.1 ml/well of the test compound solution [dimethyl sulfoxide (hereinafter referred to as DMSO) solution was diluted to 100 times with MEM] for 30 min in a CO2 incubator at 37° C. Then the culture supernatant was removed by suction and cells were treated with 0.2 ml/well of TPA solution (120 μM of DMSO solution was diluted to 60 nM with MEM) containing the same concentration of the compound as pretreatment for 60 min in a CO2 incubator at 37° C. The cells pretreated with MEM and incubated with only the TPA solution containing no test compound were used as control.
After these treatments, each 0.1 ml of culture supernatant collected from each well and 0.1 ml of MEM as background were transferred to individual wells of new 96 well microplate and incubated at 65° C. for 10 min after plate sealing to inactivate endogenous AP in MEM and cells. 0.1 ml of the substrate solution (prepared by diluting an aqueous 100 mg/ml p-nitrophenyl phosphate solution prepared previously 100 times with 0.01% magnesium chloride/1 M diethanolamine before use) for AP was added to each well and incubated for 120 minutes at room temperature in the dark. The absorbance at a wavelength of 405 nm of each well was measured using a microplate reader.
Turning to `CCOCCOc1ccc(S(=O)(=O)N2C[C@H](O)[C@@H](O)[C@H](O)[C@@H]2C(=O)NO)cc1` [Compound b, (2R,3R,4R,5S)-1-(4′-ethoxyethoxy-benzenesulfonyl)-3,4,5-trihydroxy-piperidine-2-carboxylic acid hydroxamide], the 50% inhibitory concentration (IC50) (usually the concentration at which inhibition is half-maximal) is 450 nM. On the same count and under the same terms, the same measure for `O=C(NO)[C@H]1[C@@H](O)[C@H](O)[C@@H](O)CN1S(=O)(=O)c1ccc(Oc2ccccc2)cc1` [Compound c, (2R,3R,4R,5S)-3,4,5-trihydroxy-1-(4′-phenoxybenzenesulfonyl)-piperidine-2-carboxylic acid hydroxamide]: 350 nM; for `O=C(NO)[C@H]1[C@@H](O)[C@H](O)[C@H](O)CN1S(=O)(=O)c1ccc(Oc2ccccc2)cc1` [Compound e, (2R,3R,4R,5R)-3,4,5-trihydroxy-1-(4′-phenoxybenzenesulfonyl)-piperidine-2-carboxylic acid hydroxamide]: 340 nM.

For `COc1ccc(S(=O)(=O)N2C[C@H](O)[C@@H](O)[C@H](O)[C@@H]2C(=O)NO)cc1` [Compound a, (2R,3R,4R,5S)-3,4,5-trihydroxy-1-(4′-methoxybenzenesulfonyl)-piperidine-2-carboxylic acid hydroxamide], the half-maximal inhibitory concentration (IC50) is 610 nM.

Regarding `COc1ccc(S(=O)(=O)N2C[C@H](O)[C@@H](O)[C@@H](O)[C@@H]2C(=O)NO)cc1` [Compound d, (2R,3S,4R,5S)-3,4,5-trihydroxy-1-(4′-methoxybenzenesulfonyl)-piperidine-2-carboxylic acid hydroxamide], the IC50 was 1600 nM.
